The results in this text go back to patent publication US8598207B2, “Compositions containing opioid antagonists” (Adolor Corporation, priority 2004, dated 2013).

One series in a line: Solubility in water. It is filed as physicochemical.
The nature of series [1]: Blood:plasma distribution ratio. It counts as in vitro ADME. The settings on record: blood and plasma.

Where two headings read alike, the source gives them in different places.

Take `C[C@H]1CN(C[C@H](Cc2ccccc2)C(=O)O)CC[C@@]1(C)c1cccc(O)c1.O` [active metabolite, (αS,3R,4R)-4-(3-hydroxyphenyl)-3,4-dimethyl-α-(phenylmethyl)-1-piperidinepropanoic acid monohydrate]: in the series “Solubility in water”, the Solubility in water entry was “extremely low solubility in water”.
Regarding `C[C@H]1CN(C[C@H](Cc2ccccc2)C(=O)NCC(=O)O)CC[C@@]1(C)c1cccc(O)c1` [Alvimopan, [[2(S)-[[4(R)-(3-hydroxyphenyl)-3(R),4-dimethyl-1-piperidinyl]methyl]-1-oxo-3-phenylpropyl]amino]acetic acid dihydrate], the Solubility in water entry in the series “Solubility in water” (dihydrate) is reported as “extremely low solubility in water”; in “Solubility in water” (listed as compound of formula (II), dihydrate) it was “low solubility in water except at low or high pH conditions”. Also, in series [1], the blood plasma ratio stood at 0.68.
